For assay [1], the target named is Escherichia coli LpxH (UDP-2,3-diacylglucosamine hydrolase) (Escherichia coli (strain K12), UniProt P43341). As to the kind of experiment: 50% Inhibitory Concentration (IC50) to LpxH, UMP/CMP-Glo Glycosyltransferase Assay kit. The format is biochemical. The method, boiled down:
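LpxH hydrolysis of UDP-2,3-diacylglucosamine to lipid X and UMP; UMP produced is converted to ATP and quantified by luciferase luminescence (UMP/CMP-Glo). Inhibition taken from reduced light output.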

The subject of assay [2] is E. coli (ATCC 25922). As to the kind of experiment: Minimal Inhibitory Concentration (MIC) assay, E. coli. It is filed as cell-based. As to conditions: Escherichia coli, ATCC25922; E. coli ATCC 25922, CAMHB, 20 hours at 35° C.; read-out: MIC E. coli ATCC 25922. The method in brief:
(§1)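 Broth microdilution in cation-adjusted Mueller Hinton broth, inoculum 5×10^5 CFU/mL, compounds 2-fold serially diluted from 10 mM DMSO stocks. Plates incubated 20 hours at 35° C in ambient air; MIC (μg/mL) is the lowest concentration preventing visible growth.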

The test system of assay [3] is K. pneumonia (ATCC 43816). As to the kind of experiment: Minimal Inhibitory Concentration (MIC) assay, K. pneumonia. The format is cell-based. As to conditions: Klebsiella pneumoniae; K. pneumoniae ATCC43816, CAMHB, 20 hours at 35° C.; read-out: MIC K. pneumoniae ATCC43816. The method, boiled down:
as §1

Values after ≈ are worked out from the molar mass of the structure shown.

Escherichia coli LpxH (UDP-2,3-diacylglucosamine hydrolase), sequence (P43341 whole entry): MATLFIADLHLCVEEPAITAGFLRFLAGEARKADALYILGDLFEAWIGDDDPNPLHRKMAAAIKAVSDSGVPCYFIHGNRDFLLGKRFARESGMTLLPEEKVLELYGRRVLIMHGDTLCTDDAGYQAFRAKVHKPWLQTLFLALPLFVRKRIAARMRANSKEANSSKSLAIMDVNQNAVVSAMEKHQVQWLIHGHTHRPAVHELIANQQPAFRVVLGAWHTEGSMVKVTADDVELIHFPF

In the case of `NC1CC(=O)N(c2ccc(S(=O)(=O)N3CCN(c4cc(C(F)(F)c5ccccc5)cc(Cl)n4)CC3)cc2)C1` (stereo not drawn) [Example 73, 4-Amino-1-[4-[4-[6-chloro-4-[difluoro(phenyl)methyl]-2-pyridyl]piperazin-1-yl]sulfonylphenyl]pyrrolidin-2-one], the half-inhibitory concentration (IC50) in assay [1] is 32 nM. Moreover, the MIC in assay [2] and in assay [3] was 0.44 µg/mL (≈ 0.783 µM) each time.

In the case of `NC1CC(=O)N(c2ccc(S(=O)(=O)N3CCN(c4cc(C(F)(F)F)cc(Cl)n4)CC3)cc2)C1` (stereo not drawn) [Example 1, 4-Amino-1-[4-[4-[6-chloro-4-(trifluoromethyl)-2-pyridyl]piperazin-1-yl]sulfonylphenyl]pyrrolidin-2-one], the 50% inhibitory concentration (IC50) in assay [1] was 260 nM. Also, the MIC in assay [2] was found to be 1.45 µg/mL (≈ 2.88 µM); in assay [3] it was 1.93 µg/mL (≈ 3.83 µM).

In the case of `NCC1CN(c2ccc(S(=O)(=O)N3CCN(c4cc(C(F)(F)F)cc(Cl)n4)CC3)c(F)c2)C(=O)O1` (stereo not drawn) [Example 64, 5-(Aminomethyl)-3-[4-[4-[6-chloro-4-(trifluoromethyl)-2-pyridyl]piperazin-1-yl]sulfonyl-3-fluoro-phenyl]oxazolidin-2-one], in assay [1], the IC50 was 264 nM. Also, the MIC came to 3.65 µg/mL (≈ 6.79 µM) in assay [2] and 14.6 µg/mL (≈ 27.1 µM) in assay [3].

Take `CNC1CN(CC2CC(=O)N(c3ccc(S(=O)(=O)N4CCN(c5cc(C(F)(F)F)cc(Cl)n5)CC4)cc3)C2)C1` (stereo not drawn) [Example 43, 1-[4-[4-[6-Chloro-4-(trifluoromethyl)-2-pyridyl]piperazin-1-yl]sulfonylphenyl]-4-[[3-(methylamino)azetidin-1-yl]methyl]pyrrolidin-2-one]: in assay [1], inhibition was half-maximal at 15.3 nM (IC50). Further, the MIC in assay [2] is 3.82 µg/mL (≈ 6.51 µM); in assay [3], 5.09 µg/mL (≈ 8.67 µM).

On to `NC1CN(CC2CC(=O)N(c3ccc(S(=O)(=O)N4CCN(c5cc(C(F)(F)F)cc(Cl)n5)CC4)cc3)C2)C1` (stereo not drawn) [Example 40, 4-[(3-Aminoazetidin-1-yl)methyl]-1-[4-[4-[6-chloro-4-(trifluoromethyl)-2-pyridyl]piperazin-1-yl]sulfonylphenyl]pyrrolidin-2-one], for which inhibition in assay [1] was half-maximal at 20.9 nM (IC50). In addition, the MIC in assay [2] and in assay [3] was 1.79 µg/mL (≈ 3.12 µM) each time.

Take `COc1cc(C(F)(F)c2ccccc2)nc(N2CCN(S(=O)(=O)c3ccc(N4CC(N)CC4=O)cc3)CC2)n1` (stereo not drawn) [Example 82, 4-Amino-1-[4-[4-[4-[difluoro(phenyl)methyl]-6-methoxy-pyrimidin-2-yl]piperazin-1-yl]sulfonylphenyl]pyrrolidin-2-one]: in assay [1], the half-maximal inhibitory concentration (IC50) was 247 nM. Moreover, the MIC in assay [2] and in assay [3] was 6.98 µg/mL (≈ 12.5 µM) in each case.

Take `O=C1OC(CN2CC3(CNC3)C2)CN1c1ccc(S(=O)(=O)N2CCN(c3cc(C(F)(F)F)cc(Cl)n3)CC2)cc1` (stereo not drawn) [Example 32, 3-[4-[4-[6-Chloro-4-(trifluoromethyl)-2-pyridyl]piperazin-1-yl]sulfonylphenyl]-5-(2,6-diazaspiro[3.3]heptan-2-ylmethyl)oxazolidin-2-one]: the IC50 in assay [1] is 25 nM. The MIC in assay [2] and in assay [3] was 8.94 µg/mL (≈ 14.9 µM) each time.

As for `NCCC1CN(c2ccc(S(=O)(=O)N3CCN(c4cc(C(F)(F)F)cc(Cl)n4)CC3)cc2)C(=O)O1` (stereo not drawn) [Example 9, 5-(2-Aminoethyl)-3-[4-[4-[6-chloro-4-(trifluoromethyl)-2-pyridyl]piperazin-1-yl]sulfonylphenyl]oxazolidin-2-one], the IC50 in assay [1] is 24.3 nM. Further, the MIC in assay [2] came out at 1.78 µg/mL (≈ 3.33 µM); in assay [3], 3.57 µg/mL (≈ 6.69 µM).

Molecule `NC1CC(=O)N(c2ccc(S(=O)(=O)N3CCN(c4cc(C(F)(F)c5ccccc5)nc(Cl)n4)CC3)cc2)C1` (stereo not drawn) [Example 77, 4-Amino-1-[4-[4-[2-chloro-6-[difluoro(phenyl)methyl]pyrimidin-4-yl]piperazin-1-yl]sulfonylphenyl]pyrrolidin-2-one] gave an IC50 in assay [1] of 7.1 nM. The MIC in assay [2] and in assay [3] was 0.44 µg/mL (≈ 0.781 µM) each time.

In the case of `CC(=O)NCC1CN(c2ccc(S(=O)(=O)N3CCN(c4cc(C(F)(F)F)cc(Cl)n4)CC3)cc2)C(=O)O1` (stereo not drawn) [Example 4, N-[[3-[4-[4-[6-chloro-4-(trifluoromethyl)-2-pyridyl]piperazin-1-yl]sulfonylphenyl]-2-oxo-oxazolidin-5-yl]methyl]acetamide], in assay [1], the IC50 is 28.5 nM. The MIC worked out at 3.51 µg/mL (≈ 6.25 µM) in assay [2] and 7.03 µg/mL (≈ 12.5 µM) in assay [3].

In assay [1], `CC1(C)C(=O)N(c2ccc(S(=O)(=O)N3CCN(c4cc(C(F)(F)F)cc(Cl)n4)CC3)cc2)CC1N` (stereo not drawn) [Example 5, 4-Amino-1-[4-[4-[6-chloro-4-(trifluoromethyl)-2-pyridyl]piperazin-1-yl]sulfonylphenyl]-3,3-dimethyl-pyrrolidin-2-one] had an IC50 of 154 nM. For the same molecule, the MIC came to 8.08 µg/mL (≈ 15.2 µM) in assay [2] and 16.1 µg/mL (≈ 30.4 µM) in assay [3].

The molecule `N[C@@H]1CC(=O)N(c2ccc(S(=O)(=O)N3CCN(c4cc(C(F)(F)C5CNC5)cc(Cl)n4)CC3)cc2)C1` [Example 109, (4R)-4-amino-1-[4-[4-[4-[azetidin-3-yl(difluoro)methyl]-6-chloro-2-pyridyl]piperazin-1-yl]sulfonylphenyl]pyrrolidin-2-one] showed an IC50 in assay [1] of 68.4 nM. Moreover, the MIC in assay [2] and in assay [3] was 16.4 µg/mL (≈ 30.3 µM) in each case.

Consider `CN(C)CC1CN(CC2CC(=O)N(c3ccc(S(=O)(=O)N4CCN(c5cc(C(F)(F)F)cc(Cl)n5)CC4)cc3)C2)C1` (stereo not drawn) [Example 37, 1-[4-[4-[6-Chloro-4-(trifluoromethyl)-2-pyridyl]piperazin-1-yl]sulfonylphenyl]-4-[[3-[(dimethylamino)methyl]azetidin-1-yl]methyl]pyrrolidin-2-one], for which the IC50 in assay [1] was 48.8 nM. Further, the values for the MIC in assay [2] and in assay [3] were 2.64 µg/mL (≈ 4.29 µM) and 5.27 µg/mL (≈ 8.57 µM), respectively.

Consider `NC1CC(=O)N(c2ccc(S(=O)(=O)N3CCN(c4cc(C(F)(F)c5cncnc5)cc(Cl)n4)CC3)cc2)C1` (stereo not drawn) [Example 92, 4-Amino-1-[4-[4-[6-chloro-4-[difluoro(pyrimidin-5-yl)methyl]-2-pyridyl]piperazin-1-yl]sulfonylphenyl]pyrrolidin-2-one], for which the IC50 in assay [1] is 95.7 nM. The MIC in assay [2] turned out to be 2.12 µg/mL (≈ 3.76 µM); in assay [3] it was 4.24 µg/mL (≈ 7.52 µM).

In assay [1], `NC1CC(=O)N(c2ccc(S(=O)(=O)N3CCN(c4cc(S(=O)(=O)C5CC5)cc(Cl)n4)CC3)cc2)C1` (stereo not drawn) [Example 69, 4-Amino-1-[4-[4-(6-chloro-4-cyclopropylsulfonyl-2-pyridyl)piperazin-1-yl]sulfonylphenyl]pyrrolidin-2-one] showed a concentration for half-maximal inhibition (IC50) of 746 nM. In addition, the MIC in assay [2] was 13.5 µg/mL (≈ 25 µM); in assay [3] it was 6.75 µg/mL (≈ 12.5 µM).

The molecule `CN(C)C1CN(CC2CC(=O)N(c3ccc(S(=O)(=O)N4CCN(c5cc(C(F)(F)F)cc(Cl)n5)CC4)cc3)C2)C1` (stereo not drawn) [Example 42, 1-[4-[4-[6-Chloro-4-(trifluoromethyl)-2-pyridyl]piperazin-1-yl]sulfonylphenyl]-4-[[3-(dimethylamino)azetidin-1-yl]methyl]pyrrolidin-2-one] showed an IC50 in assay [1] of 15 nM. In addition, the MIC in assay [2] and in assay [3] was 10.4 µg/mL (≈ 17.2 µM) in each case.

One may read the IC50 as the concentration that inhibits the measured activity by half. Read a high IC50 as weaker potency. The MIC is the least concentration at which growth counts as inhibited.

Values taken from patent publication US20250011300A1, “PIPERAZINYLSULFONYLARYL COMPOUNDS FOR TREATMENT OF BACTERIAL INFECTIONS” (Hoffmann-La Roche Inc., priority 2021, published 2025).
